Test results published in US11072581B2, “N-acyl-arylsulfonamide derivatives as aminoacyl-tRNA synthetase inhibitors” (Oxford Drug Design Limited, priority 2015, dated 2021).
Structures can show the parent of a compound that is named as a salt. Where two headings read alike, the source gives them in different places.

Experiments:
Format in all cases: biochemical
[1] = molecular target: T1, EcoIRS (isoleucyl-tRNA synthetase from Escherichia coli) (Escherichia coli, UniProt P00956); assay: aaRS aminoacylation assay (ATP consumption), EcoIRS; settings: i.a. = inactive at a concentration below 50 uM
T1 construct: made in house; host or cells: Escherichia coli M15
Experimental: (§1) The compounds have been tested for antibacterial activity in vitro as aminoacyl-tRNA synthetases (aaRS) inhibitors following the following process.
(§2) Leucyl-, valyl- and isoleucyl-tRNA synthetases (LRS, VRS and IRS, respectively) from Escherichia coli (Eco) and Staphylococcus aureus (Sau).
(§3) Escherichia coli M15 cells transformed with plasmid pQE-60, or pQE-70, containing the open-reading frame sequence of one targeted aaRS were induced with 1 mM IPTG (Isopropyl β-D-1-thiogalactopyranoside) for 3 h at 37° C. Bacterial cells were harvested and lysed with 20 mM NaH2PO4 (pH 8.0), 200 mM NaCl, 10 mM imidazole and protease inhibitor cocktail (Roche). Pathogenic aaRS was purified by nickel affinity standard chromatography. Protein concentration was determined by spectrophotometry.
(§4) tRNA^Leu, tRNA^Val and tRNA^Ile from E. coli and S. aureus were transcribed in vitro for 4 h at 37° C. using T7 RNA polymerase. Transcription reaction contained 40 mM Tris-HCl (pH 8.0), 22 mM MgCl2, 1 mM spermidine, 5 mM DTT, 0.01% Triton X-100, 4 mM GTP, 4 mM ATP, 4 mM UTP, 4 mM CTP, 16 mM GMP, […] T7 RNA polymerase and 150 μg BstNI digested plasmid. Once finished, the reaction was applied on a 6% polyacrylamide-8 M urea denaturing gel to purify the transcribed tRNA and discard any impurities. Purified tRNA was quantified with Nanodrop 2000 (Thermo Scientific).
(§5) The aminoacylation reaction catalyzed by aminoacyl-tRNA synthetases (aaRS) takes place in two steps. In the first step, aaRS activates its cognate amino acid with ATP; and in the second step the activated amino acid is loaded to its corresponding tRNA. This reaction can be summarized as follows: ARS+aa+ATP=ARS-aa-AMP+PPi ARS-aa-AMP+tRNA=aa-tRNA+AMP+ARS [2] (ARS, Aminoacyl-tRNA synthetase; aa, amino acid; ARS-aa-AMP, enzyme-bound to aminoacyl-adenylate; aa-tRNA, aminoacyl-tRNA).
(§6) The activity of the pathogenic aaRSs was monitored by measuring the ATP consumption rate, since this consumption is directly proportional to the activity of the aaRS. If the tested compound, at a single point concentration of 50 μM, is inhibiting the aminoacylation reaction, there is a decrease in the ATP consumption, compared to the control reaction without compound, allowing the calculation of an inhibition ratio.
(§7) When the inhibition ratio for a given compound was above 80%, IC50 determination was performed with the same enzymatic assay (using the commercial kit Kinase RR from BioThema AB, Sweden) in the presence of serial dilutions of inhibitor. Known inhibitors of LRS, VRS or IRS were used as a positive control of the assay. The IC50 was calculated based on nonlinear regression analysis.

[2] = molecular target: T2, SauIRS (isoleucyl-tRNA synthetase from Staphylococcus aureus) (Staphylococcus aureus, UniProt P41972); assay: aaRS aminoacylation assay (ATP consumption), SauIRS; settings: i.a. = inactive at a concentration below 50 uM
T2 construct: made in house; host or cells: Escherichia coli M15
T2 sequence (P41972 1-917): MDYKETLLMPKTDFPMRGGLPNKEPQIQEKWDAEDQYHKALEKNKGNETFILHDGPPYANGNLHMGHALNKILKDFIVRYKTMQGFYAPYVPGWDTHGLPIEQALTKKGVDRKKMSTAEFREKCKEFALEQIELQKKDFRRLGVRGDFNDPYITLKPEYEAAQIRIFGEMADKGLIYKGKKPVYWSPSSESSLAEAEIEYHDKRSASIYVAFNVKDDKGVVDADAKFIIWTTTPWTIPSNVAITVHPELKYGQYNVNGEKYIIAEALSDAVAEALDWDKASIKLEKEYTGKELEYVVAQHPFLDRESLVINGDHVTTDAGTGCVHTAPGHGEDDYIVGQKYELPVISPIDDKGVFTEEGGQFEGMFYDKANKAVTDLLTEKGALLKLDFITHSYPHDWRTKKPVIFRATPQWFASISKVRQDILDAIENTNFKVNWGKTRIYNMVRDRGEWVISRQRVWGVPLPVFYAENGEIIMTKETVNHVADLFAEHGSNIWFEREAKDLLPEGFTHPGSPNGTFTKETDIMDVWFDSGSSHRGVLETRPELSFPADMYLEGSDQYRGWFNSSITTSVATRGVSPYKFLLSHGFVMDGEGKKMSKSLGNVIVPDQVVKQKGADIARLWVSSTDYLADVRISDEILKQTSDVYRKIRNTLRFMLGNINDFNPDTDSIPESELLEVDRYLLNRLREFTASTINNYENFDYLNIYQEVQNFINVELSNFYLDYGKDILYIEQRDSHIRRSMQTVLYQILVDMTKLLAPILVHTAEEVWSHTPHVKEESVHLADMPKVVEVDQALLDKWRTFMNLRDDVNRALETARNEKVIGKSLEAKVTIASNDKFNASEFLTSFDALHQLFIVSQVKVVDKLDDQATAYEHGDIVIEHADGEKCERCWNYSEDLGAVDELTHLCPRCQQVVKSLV
Experimental: as §1, §2, §3, §4, §5, §6, §7

[3] = molecular target: T3, EcoLRS (leucyl-tRNA synthetase from Escherichia coli) (Escherichia coli, UniProt P07813); assay: aaRS aminoacylation assay (ATP consumption), EcoLRS
T3 construct: made in house; host or cells: Escherichia coli M15
Experimental: as §1, §2, §3, §4, §5, §6, §7

[4] = i.a. = inactive at a concentration below 50 uM, read-out: IC50 EcoLRS

T1 sequence (P00956 whole entry): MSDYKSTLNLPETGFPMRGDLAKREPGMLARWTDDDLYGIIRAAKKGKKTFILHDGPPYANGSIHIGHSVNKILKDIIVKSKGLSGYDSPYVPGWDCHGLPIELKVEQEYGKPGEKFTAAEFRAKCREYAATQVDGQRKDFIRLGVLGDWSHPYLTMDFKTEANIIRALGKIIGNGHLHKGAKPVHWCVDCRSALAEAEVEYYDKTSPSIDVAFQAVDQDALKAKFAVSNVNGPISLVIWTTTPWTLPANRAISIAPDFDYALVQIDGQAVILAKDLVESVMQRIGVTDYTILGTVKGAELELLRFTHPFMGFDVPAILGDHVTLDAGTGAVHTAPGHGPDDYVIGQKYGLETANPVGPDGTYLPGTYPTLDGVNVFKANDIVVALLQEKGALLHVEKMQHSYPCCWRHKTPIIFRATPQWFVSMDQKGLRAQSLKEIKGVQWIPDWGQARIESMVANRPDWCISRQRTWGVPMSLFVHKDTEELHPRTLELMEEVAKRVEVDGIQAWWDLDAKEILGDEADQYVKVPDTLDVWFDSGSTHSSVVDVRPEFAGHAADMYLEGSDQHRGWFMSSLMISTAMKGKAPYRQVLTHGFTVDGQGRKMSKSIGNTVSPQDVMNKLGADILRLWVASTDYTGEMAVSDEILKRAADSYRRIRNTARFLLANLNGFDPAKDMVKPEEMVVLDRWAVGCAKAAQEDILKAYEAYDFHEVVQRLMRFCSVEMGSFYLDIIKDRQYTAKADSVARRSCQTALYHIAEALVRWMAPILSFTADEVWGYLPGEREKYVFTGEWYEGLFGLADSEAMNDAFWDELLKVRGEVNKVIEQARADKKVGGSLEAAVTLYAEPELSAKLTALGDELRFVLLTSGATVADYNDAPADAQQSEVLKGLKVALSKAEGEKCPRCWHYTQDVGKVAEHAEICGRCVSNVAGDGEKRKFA
T3 sequence (P07813 whole entry): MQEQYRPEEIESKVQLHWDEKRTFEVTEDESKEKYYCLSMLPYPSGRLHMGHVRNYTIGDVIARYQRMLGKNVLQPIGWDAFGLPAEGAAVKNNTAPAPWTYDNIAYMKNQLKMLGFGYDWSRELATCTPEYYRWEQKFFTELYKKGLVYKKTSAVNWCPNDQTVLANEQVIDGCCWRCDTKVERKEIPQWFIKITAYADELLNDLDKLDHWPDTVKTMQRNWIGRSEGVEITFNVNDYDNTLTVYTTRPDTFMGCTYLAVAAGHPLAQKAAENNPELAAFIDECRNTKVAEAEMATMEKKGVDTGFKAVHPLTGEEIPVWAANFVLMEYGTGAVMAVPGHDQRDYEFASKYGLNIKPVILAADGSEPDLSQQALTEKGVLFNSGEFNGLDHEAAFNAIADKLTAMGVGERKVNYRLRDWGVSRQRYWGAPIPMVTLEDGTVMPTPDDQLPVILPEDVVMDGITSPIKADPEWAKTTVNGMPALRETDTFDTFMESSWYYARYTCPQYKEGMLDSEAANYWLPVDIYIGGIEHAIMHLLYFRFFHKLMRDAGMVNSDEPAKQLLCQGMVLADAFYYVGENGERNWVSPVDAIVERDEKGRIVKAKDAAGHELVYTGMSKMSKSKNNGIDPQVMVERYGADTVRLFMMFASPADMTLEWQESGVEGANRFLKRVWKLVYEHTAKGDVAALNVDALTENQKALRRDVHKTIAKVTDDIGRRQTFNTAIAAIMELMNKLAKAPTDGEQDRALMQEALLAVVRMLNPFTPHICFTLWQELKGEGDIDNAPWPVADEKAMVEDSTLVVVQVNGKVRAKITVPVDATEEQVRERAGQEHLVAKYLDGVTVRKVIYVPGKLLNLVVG

For `N[C@@H](CC1CC1)C(=O)NS(=O)(=O)c1cccc(-c2ccccc2)c1` (racemic) [Compound 5.10], the “IC50 EcoIRS” value [1] was “i.a”, the “IC50 SauIRS” value [2] was “i.a” and the IC50 [3] was 47600 nM.

For `CC(C)C[C@H](N)C(=O)NS(=O)(=O)c1ccccc1` [Compound 5.1, (S)-2-amino-4-methyl-N-(phenylsulfonyl)pentanamide hydrochloride], the “IC50 EcoIRS” value [1] was “i.a”, the “IC50 SauIRS” value [2] was “i.a” and the IC50 [3, 4] was 35 nM.

`CC(C)C[C@H](N)C(=O)NS(=O)(=O)c1ccc(Oc2ccccc2)cc1` [Compound 5.2] was tested, and the “IC50 EcoIRS” value [1] was “i.a”, the “IC50 SauIRS” value [2] was “i.a” and the IC50 [3] was 713 nM.

In the case of `CC(C)C[C@H](N)C(=O)NS(=O)(=O)c1ccccc1-c1ccccc1` [Compound 5.3], the “IC50 EcoIRS” value [1] is reported as “i.a”, the “IC50 SauIRS” value [2] is reported as “i.a” and the IC50 [3] is reported as 159 nM.

In the case of `CC(C)C[C@H](N)C(=O)NS(=O)(=O)c1cccc(Cl)c1` [Compound 5.4], the “IC50 EcoIRS” value [1] is reported as “i.a”, the “IC50 SauIRS” value [2] is reported as “i.a” and the IC50 [3] is reported as 31 nM.

For `CC(C)C[C@H](N)C(=O)NS(=O)(=O)c1ccccc1Cl` [Compound 5.5], the “IC50 EcoIRS” value [1] was “i.a”, the “IC50 SauIRS” value [2] was “i.a” and the IC50 [3] was 121 nM.

`CC(C)C[C@H](N)C(=O)NS(=O)(=O)c1ccccc1F` [Compound 5.6] was tested, and the “IC50 EcoIRS” value [1] was “i.a”, the “IC50 SauIRS” value [2] was “i.a” and the IC50 [3] was 233 nM.

With `Cc1cc(-c2cccc(S(=O)(=O)NC(=O)[C@@H](N)CC(C)C)c2)nc(N)n1` [Compound 5.35, (S)-2-amino-N-((3-(2-amino-6-methylpyrimidin-4-yl)phenyl)sulfonyl)-4-methylpentanamide] the “IC50 SauIRS” value [2] was “i.a” and the IC50 [3] was 14 nM.

`COc1cc(-c2cccc(S(=O)(=O)NC(=O)[C@@H](N)CC(C)C)c2)nc(N)n1` [Compound 5.36] was tested, and the “IC50 SauIRS” value [2] was “i.a” and the IC50 [3] was 12 nM.

For `CC(C)C[C@H](N)C(=O)NS(=O)(=O)c1cccc(-c2ccnc(N)n2)c1` [Compound 5.37], the “IC50 SauIRS” value [2] was “i.a” and the IC50 [3, 4] was 54 nM.

For `CC(C)C[C@H](N)C(=O)NS(=O)(=O)c1cccc(-c2nc(N)nc3nc[nH]c23)c1` [Compound 5.38], the “IC50 SauIRS” value [2] was “i.a” and the IC50 [3] was 84 nM.

`Cc1cc(-c2cccc(S(=O)(=O)NC(=O)[C@@H](N)CC(C)C)c2)ncn1` [Compound 5.39] was tested, and the “IC50 SauIRS” value [2] was “i.a” and the IC50 [3] was 45 nM.

For `CC[C@H](C)[C@H](N)C(=O)NS(=O)(=O)c1cccc(-c2cc(C)nc(N)n2)c1` [Compound 5.40], the “IC50 SauIRS” value [2] was “i.a” and the IC50 [3] was 21800 nM.

For `CC(C)C[C@H](N)C(=O)NS(=O)(=O)c1cccc(-c2cc(-c3ccccc3)nc(N)n2)c1` [Compound 5.41], the “IC50 SauIRS” value [2] was “i.a” and the IC50 [3] was 220 nM.

In the case of `CC(C)C[C@H](N)C(=O)NS(=O)(=O)c1cccc(-c2ccncc2)c1` [Compound 5.42], the “IC50 SauIRS” value [2] is reported as “i.a” and the IC50 [3, 4] is reported as 13 nM.

In the case of `CC(C)C[C@H](N)C(=O)NS(=O)(=O)c1cccc(-c2ccnc(N)c2)c1` [Compound 5.43], the “IC50 SauIRS” value [2] is reported as “i.a” and the IC50 [3] is reported as 2 nM.

In the case of `CC(C)C[C@H](N)C(=O)NS(=O)(=O)c1cccc(-c2cccc(N)n2)c1` [Compound 5.44], the “IC50 SauIRS” value [2] is reported as “i.a” and the IC50 [3] is reported as 6 nM.

With `CC(C)C[C@H](N)C(=O)NS(=O)(=O)c1cccc(-c2cc(N)nc(N)n2)c1` [Compound 5.45] the “IC50 SauIRS” value [2] was “i.a” and the IC50 [3] was 20 nM.

`CC(C)C[C@H](N)C(=O)NS(=O)(=O)c1cccc(-c2cc(N)ncn2)c1` [Compound 5.46] was tested, and the “IC50 SauIRS” value [2] was “i.a” and the IC50 [3] was 10 nM.

In the case of `CCc1cc(-c2cccc(S(=O)(=O)NC(=O)[C@@H](N)CC(C)C)c2)nc(N)n1` [Compound 5.47], the “IC50 SauIRS” value [2] is reported as “i.a” and the IC50 [3] is reported as 11 nM.

In the case of `CC(C)C[C@H](N)C(=O)NS(=O)(=O)c1cccc(-c2ncnc(N)n2)c1` [Compound 5.48], the “IC50 SauIRS” value [2] is reported as “i.a” and the IC50 [3] is reported as 3.4 nM.

With `CC(C)C[C@H](N)C(=O)NS(=O)(=O)c1cccc(-c2ccnc(Cl)n2)c1` [Compound 5.49] the “IC50 SauIRS” value [2] was “i.a” and the IC50 [3] was 64 nM.

For `CC(C)C[C@H](N)C(=O)NS(=O)(=O)c1cccc(-c2ccnc(O)n2)c1` [Compound 5.50], the “IC50 SauIRS” value [2] was “i.a” and the IC50 [3] was 63 nM.
